Reference: ChEMBL document CHEMBL4184109, “Design, synthesis, and structure-activity relationship studies of novel tetrazole antifungal agents with potent activity, broad antifungal spectrum and high selectivity” (Bioorg Med Chem Lett, 2018)
Values after ≈ are worked out from the molar mass of the structure shown.

What was measured:
[1] = system: Candida parapsilosis; assay: Antifungal activity against Candida parapsilosis ATCC 22019 after 24 hrs by serial dilution method; assay type: functional; conditions: Lodderomyces parapsilosis, ATCC 22019, 24 h
[2] = system: Candida albicans; assay: Antifungal activity against Candida albicans SC5314 after 24 hrs by serial dilution method; assay type: functional; conditions: SC5314, 24 h
[3] = target: Cytochrome P450 2C19 (Homo sapiens, UniProt P33261); assay: Inhibition of CYP2C19 in human liver microsomes using mephenytoin as substrate preincubated for 10 mins with substrate followed by NADPH addition measured after 15 mins by LC/MS/MS analysis; assay type: ADME
Cytochrome P450 2C19, sequence (P33261 whole entry): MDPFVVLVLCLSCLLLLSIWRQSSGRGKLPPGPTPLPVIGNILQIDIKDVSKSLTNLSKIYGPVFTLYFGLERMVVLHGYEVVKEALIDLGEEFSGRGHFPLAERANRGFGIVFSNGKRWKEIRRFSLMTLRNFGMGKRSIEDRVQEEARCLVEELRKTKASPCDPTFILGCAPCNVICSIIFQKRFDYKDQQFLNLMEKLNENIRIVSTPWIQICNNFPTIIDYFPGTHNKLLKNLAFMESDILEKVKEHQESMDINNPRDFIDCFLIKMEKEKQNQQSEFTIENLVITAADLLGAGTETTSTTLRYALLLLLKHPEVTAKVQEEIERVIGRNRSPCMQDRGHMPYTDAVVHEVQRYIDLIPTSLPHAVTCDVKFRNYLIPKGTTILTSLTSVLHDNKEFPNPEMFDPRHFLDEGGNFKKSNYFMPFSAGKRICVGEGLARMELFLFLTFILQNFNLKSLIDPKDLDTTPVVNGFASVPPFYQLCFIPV

[4] = target: T1, Cytochrome P450 1A2 (Homo sapiens, UniProt P05177); assay: Inhibition of CYP1A2 in human liver microsomes using phenacetin as substrate preincubated for 10 mins with substrate followed by NADPH addition measured after 15 mins by LC/MS/MS analysis; assay type: ADME
T1 sequence (P05177 whole entry): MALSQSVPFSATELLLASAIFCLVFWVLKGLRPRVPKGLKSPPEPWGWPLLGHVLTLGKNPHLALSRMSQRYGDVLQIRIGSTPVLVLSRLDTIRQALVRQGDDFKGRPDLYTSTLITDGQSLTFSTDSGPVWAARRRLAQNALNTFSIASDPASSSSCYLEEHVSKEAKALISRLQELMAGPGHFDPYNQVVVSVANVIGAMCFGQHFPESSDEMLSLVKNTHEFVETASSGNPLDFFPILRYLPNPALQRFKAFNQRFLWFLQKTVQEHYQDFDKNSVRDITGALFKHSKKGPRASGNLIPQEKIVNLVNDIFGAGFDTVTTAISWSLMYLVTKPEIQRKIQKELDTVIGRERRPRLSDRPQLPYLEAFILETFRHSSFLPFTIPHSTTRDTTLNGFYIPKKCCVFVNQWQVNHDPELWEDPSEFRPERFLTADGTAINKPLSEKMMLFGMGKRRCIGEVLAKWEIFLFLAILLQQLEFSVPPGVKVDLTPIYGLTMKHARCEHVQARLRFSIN

[5] = system: Trichophyton rubrum; assay: Antifungal activity against Trichophyton rubrum by serial dilution method; assay type: functional
[6] = system: Candida albicans; assay: Antifungal activity against Candida albicans Y0109 after 24 hrs by serial dilution method; assay type: functional; conditions: Y0109, 24 h
[7] = system: Cryptococcus neoformans; assay: Antifungal activity against Cryptococcus neoformans after 72 hrs by serial dilution method; assay type: functional
[8] = target: Cytochrome P450 2C9 (Homo sapiens, UniProt P11712); assay: Inhibition of CYP2C9 in human liver microsomes using tolbutamide as substrate preincubated for 10 mins with substrate followed by NADPH addition measured after 15 mins by LC/MS/MS analysis; assay type: ADME
Cytochrome P450 2C9, sequence (P11712 whole entry): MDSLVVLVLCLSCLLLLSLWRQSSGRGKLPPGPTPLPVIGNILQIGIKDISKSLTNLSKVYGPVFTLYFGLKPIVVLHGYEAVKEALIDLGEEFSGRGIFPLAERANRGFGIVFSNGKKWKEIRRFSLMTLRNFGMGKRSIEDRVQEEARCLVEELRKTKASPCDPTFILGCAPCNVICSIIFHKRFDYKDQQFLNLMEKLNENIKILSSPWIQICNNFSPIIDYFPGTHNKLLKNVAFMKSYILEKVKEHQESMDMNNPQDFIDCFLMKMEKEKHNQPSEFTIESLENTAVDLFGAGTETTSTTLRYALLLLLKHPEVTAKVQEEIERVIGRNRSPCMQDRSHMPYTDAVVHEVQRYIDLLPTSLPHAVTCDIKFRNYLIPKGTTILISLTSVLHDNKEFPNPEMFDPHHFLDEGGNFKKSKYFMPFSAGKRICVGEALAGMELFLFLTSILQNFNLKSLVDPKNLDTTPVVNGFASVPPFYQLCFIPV

[9] = system: Nannizzia gypsea; assay: Antifungal activity against Microsporum gypseum by serial dilution method; assay type: functional
[10] = system: Nakaseomyces glabratus; assay: Antifungal activity against Candida glabrata after 24 hrs by serial dilution method; assay type: functional
[11] = target: Cytochrome P450 2D6 (Homo sapiens, UniProt P10635); assay: Inhibition of CYP2D6 in human liver microsomes using dextromethorphan as substrate preincubated for 10 mins with substrate followed by NADPH addition measured after 15 mins by LC/MS/MS analysis; assay type: ADME
Cytochrome P450 2D6, sequence (P10635 whole entry): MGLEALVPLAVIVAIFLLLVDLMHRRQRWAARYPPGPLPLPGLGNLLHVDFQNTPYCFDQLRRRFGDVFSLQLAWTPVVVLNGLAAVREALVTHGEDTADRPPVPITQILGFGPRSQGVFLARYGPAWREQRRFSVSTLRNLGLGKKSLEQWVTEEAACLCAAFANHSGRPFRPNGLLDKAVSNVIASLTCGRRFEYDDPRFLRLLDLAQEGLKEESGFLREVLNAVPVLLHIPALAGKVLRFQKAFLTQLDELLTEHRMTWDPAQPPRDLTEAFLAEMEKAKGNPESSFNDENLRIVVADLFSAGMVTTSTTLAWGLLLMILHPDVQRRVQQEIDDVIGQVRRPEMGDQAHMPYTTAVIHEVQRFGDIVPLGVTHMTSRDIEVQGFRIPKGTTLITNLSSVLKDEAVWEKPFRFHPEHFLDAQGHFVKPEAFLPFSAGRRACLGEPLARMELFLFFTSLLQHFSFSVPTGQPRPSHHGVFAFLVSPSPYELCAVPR

[12] = system: Aspergillus fumigatus; assay: Antifungal activity against Aspergillus fumigatus after 48 hrs by serial dilution method; assay type: functional
[13] = system: Nakaseomyces glabratus; assay: Potency index, ratio of VT-1161 MIC80 to compound MIC80 for Candida glabrata; assay type: functional
[14] = system: Cryptococcus neoformans; assay: Potency index, ratio of VT-1161 MIC80 to compound MIC80 for Cryptococcus neoformans; assay type: functional
[15] = system: Trichophyton rubrum; assay: Potency index, ratio of VT-1161 MIC80 to compound MIC80 for Trichophyton rubrum; assay type: functional
[16] = system: Nannizzia gypsea; assay: Potency index, ratio of VT-1161 MIC80 to compound MIC80 for Microsporum gypseum; assay type: functional
[17] = system: Candida albicans; assay: Potency index, ratio of VT-1161 MIC80 to compound MIC80 for Candida albicans SC5314; assay type: functional
[18] = system: Candida parapsilosis; assay: Potency index, ratio of VT-1161 MIC80 to compound MIC80 for Candida parapsilosis ATCC 22019; assay type: functional
[19] = system: Candida albicans; assay: Potency index, ratio of VT-1161 MIC80 to compound MIC80 for Candida albicans Y0109; assay type: functional

| SMILES | MIC80 [1] | MIC80 [2] | IC50 [3] | IC50 [4] | MIC80 [5] | MIC80 [6] | MIC80 [7] | IC50 [8] | MIC80 [9] | MIC80 [10] | IC50 [11] | MIC80 [12] | Ratio [13] | Ratio [14] | Ratio [15] | Ratio [16] | Ratio [17] | Ratio [18] | Ratio [19] |
| --- | --- | --- | --- | --- | --- | --- | --- | --- | --- | --- | --- | --- | --- | --- | --- | --- | --- | --- | --- |
| O=c1n(-c2ccc(C(F)(F)C(O)(Cn3cnnn3)c3ccc(F)cc3F)nc2)cnn1C1CCCC1 (stereo not drawn) | 0.125 µg/mL (≈ 0.248 µM) | 0.25 µg/mL (≈ 0.496 µM) | 17 µM | 22.6 µM | 4 µg/mL (≈ 7.93 µM) | 0.25 µg/mL (≈ 0.496 µM) | 1 µg/mL (≈ 1.98 µM) | 11.9 µM | 16 µg/mL (≈ 31.7 µM) | 2 µg/mL (≈ 3.96 µM) | 10.8 µM | > 8 µg/mL |  |  |  |  |  |  |  |
| CC(C)(C)Cn1ncn(-c2ccc(C(F)(F)C(O)(Cn3cnnn3)c3ccc(F)cc3F)nc2)c1=O (stereo not drawn) | 0.5 µg/mL (≈ 0.987 µM) | 0.5 µg/mL (≈ 0.987 µM) | 20 µM | 25 µM | 2 µg/mL (≈ 3.95 µM) | 0.25 µg/mL (≈ 0.494 µM) | 0.5 µg/mL (≈ 0.987 µM) | 25 µM | 4 µg/mL (≈ 7.9 µM) | 1 µg/mL (≈ 1.97 µM) | 7.7 µM | > 64 µg/mL | 2 - 4 | 2 - 4 | 2 - 4 | 2 - 4 | 2 - 4 | 2 - 4 | 2 - 4 |
| O=c1n(-c2ccc(C(F)(F)C(O)(Cn3cnnn3)c3ccc(F)cc3F)nc2)cnn1C1CCCCC1 (stereo not drawn) | 0.25 µg/mL (≈ 0.482 µM) | 0.25 µg/mL (≈ 0.482 µM) | 14.6 µM | 14.5 µM | 2 µg/mL (≈ 3.86 µM) | 0.25 µg/mL (≈ 0.482 µM) | 0.125 µg/mL (≈ 0.241 µM) | 16.5 µM | 4 µg/mL (≈ 7.71 µM) | 0.25 µg/mL (≈ 0.482 µM) | 21.1 µM | > 64 µg/mL |  |  |  |  |  |  |  |
| OC(Cn1cnnn1)(c1ccc(F)cc1F)C(F)(F)c1ccc(-c2ccc(OCC(F)(F)F)cc2)cn1 (racemic) | 0.5 µg/mL (≈ 0.948 µM) | 1 µg/mL (≈ 1.9 µM) | 8.5 µM | 28.9 µM | 2 µg/mL (≈ 3.79 µM) | 1 µg/mL (≈ 1.9 µM) | 1 µg/mL (≈ 1.9 µM) | 11.5 µM | 8 µg/mL (≈ 15.2 µM) | 2 µg/mL (≈ 3.79 µM) | 8.7 µM | > 8 µg/mL |  |  |  |  |  |  |  |
| OC(Cn1cncn1)(Cn1cncn1)c1ccc(F)cc1F [FLUCONAZOLE] | 1 µg/mL (≈ 3.27 µM) | 0.5 µg/mL (≈ 1.63 µM) |  |  | 2 µg/mL (≈ 6.53 µM) | 2 µg/mL (≈ 6.53 µM) | 0.5 µg/mL (≈ 1.63 µM) |  | 8 µg/mL (≈ 26.1 µM) | 0.5 µg/mL (≈ 1.63 µM) |  | > 64 µg/mL |  |  |  |  |  |  |  |
